# Tests used:
# [1] = Dissolution rate test in deionized water (USP XXIII apparatus, UV 235 nm); assay type: physicochemical; conditions: for % of active principle passed in solution after 10 minutes: as stated in the text of the Examples; for % by weight of the active principle passed in solution: 30 mg active principle in 1000 ml deionized water, 37°C, 100 rpm
# Description: The dissolution rate test is carried out in a dissolving equipment according to United States Pharmacopeia 23 by using a volume of deionized water of 1000 ml. The blade stirrer speed is of 100 rpm and the temperature is 37±0.5° C.
# In a little glass vessel an exact amount of each sample is weighed so that it contains an amount of the active principle equal to 30 mg, which is directly introduced in the vessel containing the deionized water. At predetermined times, respectively of 5, 10, 15, 30, 45, 50, 60, 90 and 120 minutes from the beginning of the test, the amount of the nitroderivative compound passed in solution is determined, by measuring the concentration w/v (weigh/volume) thereof by UV spectrophotometry at the wave length of 235 nm, using a calibration line. The data are expressed as percentage of nitroderivative compound passed in solution in connection with the time. The amount of the compound of formula (I) passed in solution at the time of 10 minutes is at least about 10 times higher with respect to that of the nitroderivative compound not in amorphous form.
# The dissolution rate of 3-(nitroxymethyl)phenyl ester of the acetylsalicylic acid as such and in the preparations containing it according to the examples described hereinafter, has been carried out in a dissolving equipment according to USP (United States Pharmacopeia) XXIII.
# The test is carried out by using a volume of deionized water of 1000 ml. The angle rate of the blade stirrer is of 100 rpm and the temperature of 37±0.5° C.
# In a little glass vessel an exact amount of each preparation to be tested is weighed so that it contains an amount of the active principle equal to 30 mg, which is directly introduced in the vessel. At predetermined times, respectively of 5, 10, 15, 30, 45, 50, 60, 90 and 120 minutes from the beginning of the test the amount of the compound passed in solution is determined, by measuring the concentration w/v thereof by UV spectrophotometry at the wave length of 235 nm, using a calibration line. The data are expressed as percentage of active principle passed in solution in connection with the time.
# [2] = Crystallinity loss (amorphization degree) by DSC; assay type: physicochemical; conditions: result in words
# Description: The amorphization degree can be measured by well known methods such as for example DSC, RX, IR, etc. […] The amorphization degree is determined by DSC as variation reduction) of the subtended area of the endothermic melting peak of the active principle. When the amorphization is complete, the melting peak characteristic of the active principle of formula (I) substantially disappears. This means that there is a variation of the enthalpy associated to the melting peak. The specific melting enthalpy ΔH (Joule/g) of the product as such and of the product treated with processes able to decrease the crystallinity (formulation) thereof, is determined by DSC analysis. The percent crystallinity loss is evaluated by the following equation: [formula] The scanning parameters adopted for the DSC analysis are the following: Scanning range: from 30° C. min. to 330° C. max Scanning rate: 10 K/min
SMILES,% of active principle passed in solution after 10 minutes [1],"% by weight of the active principle passed in solution ([1]; time 5 minutes, listed as Ex. 1)","% by weight of the active principle passed in solution ([1]; time 10 minutes, listed as Ex. 1)","% by weight of the active principle passed in solution ([1]; time 15 minutes, listed as Ex. 1)","% by weight of the active principle passed in solution ([1]; time 30 minutes, listed as Ex. 1)","% by weight of the active principle passed in solution ([1]; time 45 minutes, listed as Ex. 1)","% by weight of the active principle passed in solution ([1]; time 60 minutes, listed as Ex. 1)","% by weight of the active principle passed in solution ([1]; time 90 minutes, listed as Ex. 1)","% by weight of the active principle passed in solution ([1]; time 120 minutes, listed as Ex. 1)",crystalline state of the active principle by DSC analysis [2],% by weight of the active principle passed in solution ([1]; time 0 minutes),% by weight of the active principle passed in solution ([1]; time 5 minutes),% by weight of the active principle passed in solution ([1]; time 10 minutes),% by weight of the active principle passed in solution ([1]; time 15 minutes),% by weight of the active principle passed in solution ([1]; time 30 minutes),% by weight of the active principle passed in solution ([1]; time 45 minutes),% by weight of the active principle passed in solution ([1]; time 60 minutes),% by weight of the active principle passed in solution ([1]; time 90 minutes),% by weight of the active principle passed in solution ([1]; time 120 minutes)
"CC(=O)Oc1ccccc1C(=O)Oc1cccc(CO[N+](=O)[O-])c1 [Example 1, 3-(nitroxymethyl)phenyl ester of the acetylsalicylic acid]",0.3%,0.1 % by weight,0.3 % by weight,0.4 % by weight,0.8 % by weight,1.2 % by weight,1.6 % by weight,2.4 % by weight,3.1 % by weight,completely crystalline,,,,,,,,,
"CC(=O)Oc1ccccc1C(=O)Oc1cccc(CO[N+](=O)[O-])c1 [Example 7, 3-(nitroxymethyl)phenyl ester of the acetylsalicylic acid]",0.5%,,,,,,,,,completely crystalline form,0.0 % by weight,0.3 % by weight,0.5 % by weight,0.8 % by weight,1.5 % by weight,2.2 % by weight,2.7 % by weight,4.0 % by weight,5.2 % by weight

# Reference: patent US6753442B1, “Amorphous nitric esters and their pharmaceutical compositions” (Nicox S.A., priority 1999, dated 2004)
